Values after ≈ are worked out from the molar mass of the structure shown.

For one assay, the system named is GAMG. Kind of assay: Antiproliferative activity against human GAMG cells assessed as reduction in cell viability incubated for 48 hrs by MTS reagent based assay. The class given is functional. For orientation: Tetrazolium dyes change colour on reduction, which living cells bring about.
The test system of a further assay is H4. Kind of assay: Antiproliferative activity against human H4 cells assessed as reduction in cell viability incubated for 72 hrs by Prestoblue-reagent based assay. Format: functional. Conditions: H4, 72 h.
A further assay deals with U-87 MG. Kind of assay: Antiproliferative activity against human U-87 MG cells assessed as reduction in cell viability at 100 uM incubated for 72 hrs by Prestoblue-reagent based assay relative to control. Format: functional, U-87MG ATCC.
Assay [1] deals with SF-268. Kind of assay: Antiproliferative activity against human SF-268 cells. The class given is functional, cell-based.
Another assay relates to SF-295. Kind of assay: Cytotoxicity against human SF-295 cells assessed as reduction in cell growth incubated for 96 hrs by MTT assay. Format: functional, cell-based. Conditions: SF-295, 96 h.
In assay [2] the test system is SF-268. Kind of assay: Cytotoxicity against human SF-268 cells assessed as reduction in cell viability incubated for 72 hrs by SRB assay. The class given is functional, cell-based. Conditions: SF-268, 72 h. (In general: Sulforhodamine B stains cellular protein and so reports cell mass.)
Assay [3] can be described thus: Cytotoxicity against human CHG-5 cells assessed as reduction in cell viability incubated for 48 hrs by MTT assay. Format: functional, cell-based. The settings on record: CHG-5, 48 h.
The subject of assay [4] is CCF-STTG1. Kind of assay: Cytotoxicity against human CCF-STTG1 cells assessed as reduction in cell viability incubated for 48 hrs by MTT assay. Conditions: CCF-STTG1, 48 h. The class given is functional, cell-based.
In assay [5] the test system is U-251. Kind of assay: Cytotoxicity against human U-251MG cells assessed as reduction in cell viability incubated for 48 hrs by MTT assay. The settings on record: U-251, 48 h. The class given is functional, cell-based.
Assay [6] is described as follows: Cytotoxicity against human SHG-44 cells assessed as reduction in cell viability incubated for 48 hrs by MTT assay. Format: functional, cell-based. The settings on record: SHG-44, 48 h.
The subject of assay [7] is U-251. Kind of assay: Cytotoxicity against human U-251MG cells assessed as reduction in cell viability incubated for 24 hrs by MTT assay. The settings on record: U-251, 24 h. Format: functional, cell-based.
A short description of assay [8]: Cytotoxicity against human SHG-44 cells assessed as reduction in cell viability incubated for 24 hrs by MTT assay. The settings on record: SHG-44, 24 h. The class given is functional, cell-based.
A short description of assay [9]: Cytotoxicity against human CHG-5 cells assessed as reduction in cell viability incubated for 24 hrs by MTT assay. The class given is functional, cell-based. Conditions: CHG-5, 24 h.
The subject of assay [10] is CCF-STTG1. Kind of assay: Cytotoxicity against human CCF-STTG1 cells assessed as reduction in cell viability incubated for 24 hrs by MTT assay. The class given is functional, cell-based. The settings on record: CCF-STTG1, 24 h.
Assay [11] deals with SH-SY5Y. Kind of assay: Cytotoxicity against human SH-SY5Y cells. The class given is functional, cell-based.
The subject of assay [12] is CCF-STTG1. Kind of assay: Cytotoxicity against human CCF-STTG1 cells assessed as reduction in cell growth incubated for 24 hrs by MTT assay. Format: functional, cell-based. Conditions: CCF-STTG1, 24 h.
A short description of assay [13]: Cytotoxicity against human GSC-3 cells assessed as reduction in cell viability incubated for 72 hrs by MTS assay. Format: functional, cell-based. Conditions: GSC-3, 72 h.
In assay [14] the test system is SH-SY5Y. Kind of assay: Cytotoxicity against human SH-SY5Y cells assessed as reduction in cell growth incubated for 48 hrs by MTT assay. Format: functional, cell-based.
The nature of assay [15]: Cytotoxicity against human SHG-44 cells assessed as reduction in cell growth incubated for 48 hrs by MTT assay. The class given is functional, cell-based. Conditions: SHG-44, 48 h.
The nature of assay [16]: Cytotoxicity against human CHG-5 cells assessed as reduction in cell growth incubated for 48 hrs by MTT assay. The class given is functional, cell-based. The settings on record: CHG-5, 48 h.
In assay [17] the test system is U-251. Kind of assay: Cytotoxicity against human U-251MG cells assessed as reduction in cell growth incubated for 48 hrs by MTT assay. Conditions: U-251, 48 h. The class given is functional, cell-based.
Assay [18] can be described thus: Cytotoxicity against human U-343MG cells assessed as reduction in cell growth incubated for 48 hrs by MTT assay. Format: functional, cell-based.
Assay [19] is described as follows: Cytotoxicity against human GL15 cells assessed as reduction in cell growth incubated for 48 hrs by MTT assay. Format: functional, cell-based. Conditions: GL15, 48 h.

`COC(=O)C1=CO[C@@H](C)[C@@H]2CN3CC[C@]4(C(=O)Nc5ccccc54)[C@@H]3C[C@H]12`: the IC50 with GAMG stood at 20.1 µM.

`CC1=NCCc2c1[nH]c1ccccc21`: the IC50 in the assay on H4 stood at 33.5 µM. Also, in the assay with U-87 MG, the inhibition at 100 µM amounted to 30%.

Regarding `C[C@@H]1CC[C@H]2C(C)(C)[C@H](O)CC[C@]2(C)[C@@]12Cc1c(O)cc3c(c1O2)C(=O)NC3=O`, half-maximal inhibition in the assay with SF-268 [1] (IC50) required 43.3 µM.

In the case of `C[C@@H]1CC[C@H]2C(C)(C)[C@H](O)CC[C@]2(C)[C@@]12Cc1c(O)cc3c(c1O2)CNC3=O`, in the assay on SF-268 [1], the half-maximal inhibitory concentration (IC50) turned out to be 67.2 µM.

Take `C[C@@H]1CC[C@H]2C(C)(C)[C@H](O)CC[C@]2(C)[C@@]12Cc1c(O)cc3c(c1O2)C(=O)NC3`: in the assay with SF-268 [1], the IC50 was found to be 11.2 µM.

Regarding `COc1cc2c(cc1OC)[C@H](O)[C@@H]1c3c(cc4c(c3-2)OCO4)CCN1C`, the IC50 in the assay with SF-295 amounted to 1.41 µg/mL (≈ 3.97 µM).

With `C/C=C(\C)[C@H](O)[C@H](C)/C=C(C)/C=C(\C)C/C(C)=C/Cc1nc(OC)c(OC)c(O)c1C`, the concentration for half-maximal inhibition (IC50) in the assay on SF-268 [2] is 30.2 µM.

With `COC(=O)N1CCc2cc(O)c(OC)c3c4c(cc1c23)C(=O)C=C(OC)C4=O`, the half-maximal inhibitory concentration (IC50) was 10.8 µM in [3], 9.2 µM in the assay on CCF-STTG1 [4], 11.3 µM with U-251 [5] and 10.8 µM in assay [6].

Regarding `Oc1cc2c3c(c1O)c1cc4c(cc1c[n+]3CC2)OCO4`, the IC50 in [3] came out at 10.2 µM; with CCF-STTG1 [4], 10.3 µM; in the assay on U-251 [5], 11.8 µM; in assay [6], 9.4 µM.

On to `CC(=O)O[C@@H]1C2C3C[C@H]4C5=Nc6ccccc6[C@]51C[C@@H]2[N+]4([O-])[C@@H](C)[C@@H]3C=O` (some centres not stated), for which the 50% inhibitory concentration (IC50) in the assay with U-251 [7] came out at 12.3 µM; in assay [8], 11.8 µM; in [9] it was 12.9 µM; in the assay with CCF-STTG1 [10], 12.3 µM.

Molecule `Cc1cc2[nH]c(=O)c(=O)n(CC(O)C(O)C(O)CO)c2cc1C` (configuration not stated) gave a half-inhibitory concentration (IC50) in the assay on SH-SY5Y [11] of 71.2 µM.

Consider `C/C=C1\C2C[C@H]3C4=Nc5ccccc5[C@]45C[C@@H](C2[C@H]5OC(C)=O)[N+]3([O-])[C@H]1C` (some centres not stated), for which the IC50 in the assay on U-251 [7] was 14.9 µM; in [8], 17.4 µM; in assay [9], 15.8 µM; with CCF-STTG1 [10], 16.7 µM.

With `COc1cc2c(cc1O)C(=O)O[C@H]1[C@@H]2[C@H]2C(=C[C@@H]1O)CC[N+]2(C)[O-]` (some centres not stated), in the assay with CCF-STTG1 [12], the IC50 came out at 83.2 µM.

Consider `COc1cc2c(c(Oc3ccc(C=O)cc3)c1OC)C[C@H]1c3c(c(OC)c(OC)c(OC)c3-2)CCN1C`, for which the 50% inhibitory concentration (IC50) in assay [13] came to 14.5 µg/mL (≈ 28.7 µM).

As to `COc1cc2c(c(Oc3ccc(C=O)cc3)c1OC)-c1c(OC)c(OC)c(OC)c3ccnc(c13)C2=O`, the IC50 in assay [13] came to 16.3 µg/mL (≈ 32.5 µM).

Turning to `COc1cc2c(cc1O)C(=O)O[C@@H]1CC=C3CC[N+](C)([O-])[C@H]3[C@H]21` (some centres not stated), the IC50 in the assay with CCF-STTG1 [12] stood at 93 µM.

Regarding `O[C@H]1[C@H]2c3cc4c(cc3C=[N+]3CCC(=C[C@@H]1O)[C@H]23)OCO4`, the IC50 in [3] turned out to be 10.2 µM; in the assay on CCF-STTG1 [4], 10.3 µM; with U-251 [5], 11.8 µM; in assay [6], 9.4 µM.

For the molecule `CC(=O)O[C@H]1c2cc3c(cc2[C@]24C=C[C@H](O)C[C@H]2N1C[C@H]4O)OCO3`, the half-inhibitory concentration (IC50) amounted to 29.4 µM in [3], 29.4 µM in the assay on CCF-STTG1 [4], 15.8 µM in the assay on U-251 [5] and 28.3 µM in assay [6].

`COc1cc2c(c(Oc3ccc(C=O)cc3)c1OC)C[C@H]1c3c(cc(OC)c(OC)c3-2)CCN1C`: in assay [13], the IC50 was 19.2 µg/mL (≈ 40.5 µM).

In turn, `N#Cc1cnc2ccccc2c1O` came in with a half-maximal inhibitory concentration (IC50) with SH-SY5Y [11] of 66.8 µM.

For the molecule `CC(C)=CC[C@]12C/C=C(/C)Oc3cccc(CO)c3/C(N)=C(/C(=O)C=C1C)C2=O`, half-maximal inhibition in the assay with SF-268 [1] (IC50) was put at 17.9 µM.

In the case of `CO[C@@H]1C=C[C@@]23c4cc5c(cc4CN(CCc4ccc(O)cc4)[C@@H]2CN(C)[C@H]3C1)OCO5`, the 50% inhibitory concentration (IC50) was determined as 53.7 µM with SH-SY5Y [14]; 43.7 µM in assay [15]; 41.8 µM in [16]; 46.6 µM with U-251 [17]; 43.2 µM in assay [18]; 39.8 µM in [19].

As for `CC/C=C(\C)[C@H](O)[C@H](C)/C=C(C)/C=C(\C)C/C(C)=C/Cc1nc(OC)c(OC)c(O)c1C`, the concentration for half-maximal inhibition (IC50) with SF-268 [2] amounted to 45.9 µM.

As usually defined, the IC50 is the point on the concentration scale where inhibition reaches its midpoint. The term inhibition denotes the relative decrease from the control value, in per cent.

The values above are taken from ChEMBL document CHEMBL6115010, “Targeting glioma with heteroaromatic alkaloids: A review of potential therapeutics” (Bioorg Med Chem, 2025).
